These results are taken from patent publication US11767322B2 (BRISTOL-MYERS SQUIBB COMPANY, priority 2020, dated 2023).

Read-outs that look alike come from different tables or passages of the source.

Assay [1] concerns MLKL phosphorylation in HT29-L23 human colorectal adenocarcinoma cells. The assay is described as follows: MLKL phosphorylation high-content assay. The format is cell-based.
Assay [2] has as its target T1, His-GST-TVMV-hRIPK1(1-324) (Homo sapiens, UniProt Q13546).
T1 construct: The coding region of human RIPK1(1-324) flanked by NdeI site at 5′ end; made in house; host or cells: Spodoptera frugiperda Sf9 insect cells (baculovirus, Bac-to-Bac)
T1 sequence (Q13546 1-324): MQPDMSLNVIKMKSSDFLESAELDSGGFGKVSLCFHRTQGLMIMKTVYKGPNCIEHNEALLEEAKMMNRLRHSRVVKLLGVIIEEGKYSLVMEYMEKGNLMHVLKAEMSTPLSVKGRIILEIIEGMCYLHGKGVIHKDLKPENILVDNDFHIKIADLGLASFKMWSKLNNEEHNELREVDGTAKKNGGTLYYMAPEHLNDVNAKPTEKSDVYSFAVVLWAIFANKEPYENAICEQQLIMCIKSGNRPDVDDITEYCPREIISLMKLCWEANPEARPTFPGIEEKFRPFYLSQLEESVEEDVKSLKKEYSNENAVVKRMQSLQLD
The assay is described as follows: biochemical. In kind it is binding. The settings on record: read-out: RIPK1 IC50.

The mark [3] stands for this setting: Homo sapiens, 6 h, read-out: pMLKL IC50, HT29-L23 cells, necroptosis induced with TNFα, SMAC mimetic and Z-VAD, 6 h, maximal inhibition defined by Nec1s.
The mark [4] stands for this setting: HTRF probe displacement, 1 h at rt.
The mark [5] stands for this setting: read-out: pMLKL IC50, HT29-L23 cells, necroptosis induced with TNFα, SMAC mimetic and Z-VAD, 6 h, maximal inhibition defined by Nec1s.

A word on the IC50: it is the concentration that gives 50% inhibition. As for `[2H]C([2H])([2H])c1ccc(-c2ccn3nc(N)nc3c2)c(F)c1C(=O)NC[C@H](F)[C@](C)(O)c1ccc(F)cc1` [Example 215, 3-(2-amino-[1,2,4]triazolo[1,5-a]pyridin-7-yl)-2-fluoro-N-((1S,3R)-2-fluoro-3-(4-fluorophenyl)-3-hydroxybutyl)-6-(methyl-d3)benzamide], the IC50 in assay [1] (setting [3]) came out at 6.6 nM; in assay [2] (setting [4]), 8.7 nM.

In the case of `Cc1ccc(-c2ccn3nc(N)nc3c2)c(F)c1C(=O)NCC(C)(F)C(O)c1ccc(F)cc1` (single isomer, unassigned) [Example 202, 3-(2-amino-[1,2,4]triazolo[1,5-a]pyridin-7-yl)-2-fluoro-N-(2-fluoro-3-(4-fluorophenyl)-3-hydroxy-2-methylpropyl)-6-methylbenzamide], the IC50 in assay [1] (setting [5]) is 2.1 nM; in assay [2] (setting [4]), 13 nM.

As to `Cc1cc(F)c(-c2ccn3nc(N)nc3c2)cc1C(=O)NCCC(O)c1ccc(Cl)cn1` (stereo not drawn) [Example 5, 5-(2-amino-[1,2,4]triazolo[1,5-a]pyridin-7-yl)-N-(3-(5-chloropyridin-2-yl)-3-hydroxypropyl)-4-fluoro-2-methylbenzamide], the half-maximal inhibitory concentration (IC50) in assay [1] (setting [3]) was determined as 2.6 nM; in assay [2] (setting [4]) it was 6.4 nM.

`Cc1ncc(-c2ccn3nc(N)nc3c2)cc1C(=O)NCC(C)(O)Cc1ccc(F)cc1` (stereo not drawn) [Compound 421 from WO2018/148626, reference compound]: the IC50 came out at 315 nM in assay [1] (Homo sapiens, Table 23, representative compounds from WO2018/148626, read-out: pMLKL IC50) and 110 nM in assay [2] (Table 23, representative compounds from WO2018/148626).

For `[2H]C(O)(c1ccc(C(F)F)cc1)C(F)(F)CNC(=O)c1c(Cl)ccc(-c2ccn3nc(N)nc3c2)c1F` (single isomer, unassigned) [Example 311, 3-(2-amino-[1,2,4]triazolo[1,5-a]pyridin-7-yl)-6-chloro-N-(3-(4-(difluoromethyl)phenyl)-2,2-difluoro-3-hydroxypropyl-3-d)-2-fluorobenzamide], the half-inhibitory concentration (IC50) in assay [1] (setting [3]) came out at 0.8 nM; in assay [2] (setting [4]), 5 nM.

In the case of `Nc1nc2cc(-c3ccc(Cl)c(C(=O)NCC(F)(F)C(O)c4ccc(F)cc4F)c3F)ccn2n1` (single isomer, unassigned) [Example 178, 3-(2-amino-[1,2,4]triazolo[1,5-a]pyridin-7-yl)-6-chloro-N-(3-(2,4-difluorophenyl)-2,2-difluoro-3-hydroxypropyl)-2-fluorobenzamide], the results for the IC50 in assay [1] (setting [5]) and in assay [2] (setting [4]) were 22 nM and 0.9 nM, respectively.

Take `[2H]C([2H])([2H])c1ccc(-c2ccn3nc(N)nc3c2)c(F)c1C(=O)NCC(F)(F)C(O)(c1ccc(F)cc1)C([2H])([2H])[2H]` (single isomer, unassigned) [Example 243, 3-(2-amino-[1,2,4]triazolo[1,5-a]pyridin-7-yl)-N-(2,2-difluoro-3-(4-fluorophenyl)-3-hydroxybutyl-4,4,4-d3)-2-fluoro-6-(methyl-d3)benzamide]: the figures for the 50% inhibitory concentration (IC50) in assay [1] (setting [3]) and in assay [2] (setting [4]) were 1.2 nM and 4.7 nM, respectively.

Consider `Nc1nc2cc(-c3ccc(Cl)c(C(=O)NCC(F)(F)C(O)c4cccc(F)c4F)c3F)ccn2n1` (single isomer, unassigned) [Example 166, 3-(2-amino-[1,2,4]triazolo[1,5-a]pyridin-7-yl)-6-chloro-N-(3-(2,3-difluorophenyl)-2,2-difluoro-3-hydroxypropyl)-2-fluorobenzamide], for which the values for the IC50 in assay [1] (setting [3]) and in assay [2] (setting [4]) were 5.1 nM and 2.1 nM, respectively.

Regarding `[2H]C([2H])([2H])c1ccc(C(O)C(F)(F)CNC(=O)c2c(C([2H])([2H])[2H])ccc(-c3ccn4nc(N)nc4c3)c2F)cc1` (single isomer, unassigned) [Example 200, 3-(2-amino-[1,2,4]triazolo[1,5-a]pyridin-7-yl)-N-(2,2-difluoro-3-hydroxy-3-(4-(methyl-d3)phenyl)propyl)-2-fluoro-6-(methyl-d3)benzamide], the IC50 in assay [1] (setting [3]) was 0.8 nM; in assay [2] (setting [4]) it was 4.7 nM.

`[2H]C([2H])([2H])c1ccc(-c2ccn3nc(N)nc3c2)c(F)c1C(=O)NC[C@@H](F)[C@@](C)(O)c1ccc(F)cc1` [Example 216, 3-(2-amino-[1,2,4]triazolo[1,5-a]pyridin-7-yl)-2-fluoro-N-((2R,3S)-2-fluoro-3-(4-fluorophenyl)-3-hydroxybutyl)-6-(methyl-d3)benzamide]: the values for the IC50 in assay [1] (setting [3]) and in assay [2] (setting [4]) were 0.4 nM and 4.7 nM, respectively.

As for `[2H]C([2H])([2H])c1ccc(-c2ccn3nc(N)nc3c2)c(F)c1C(=O)NCC(F)(F)C(C)(O)c1ccc(F)cc1` (single isomer, unassigned) [Example 242, 3-(2-amino-[1,2,4]triazolo[1,5-a]pyridin-7-yl)-N-(2,2-difluoro-3-(4-fluorophenyl)-3-hydroxybutyl)-2-fluoro-6-(methyl-d3)benzamide], the half-maximal inhibitory concentration (IC50) was found to be 1 nM in assay [1] (setting [5]) and 9.1 nM in assay [2] (setting [4]).

Turning to `Nc1nc2cc(-c3ccc(Cl)c(C(=O)NCC(O)C(F)(F)c4ccc(F)cc4)c3F)ccn2n1` (single isomer, unassigned) [Example 292, 3-(2-amino-[1,2,4]triazolo[1,5-a]pyridin-7-yl)-6-chloro-N-(3,3-difluoro-3-(4-fluorophenyl)-2-hydroxypropyl)-2-fluorobenzamide], the figures for the half-maximal inhibitory concentration (IC50) in assay [1] (setting [3]) and in assay [2] (setting [4]) were 1 nM and 2.4 nM, respectively.

Consider `Nc1nc2cc(-c3ccc(Cl)c(C(=O)NCC(F)(F)C4(c5ccc(F)cc5)COC4)c3F)ccn2n1` [Example 245, 3-(2-amino-[1,2,4]triazolo[1,5-a]pyridin-7-yl)-6-chloro-N-(2,2-difluoro-2-(3-(4-fluorophenyl)oxetan-3-yl)ethyl)-2-fluorobenzamide], for which the figures for the IC50 in assay [1] (setting [3]) and in assay [2] (setting [4]) were 3.7 nM and 19 nM, respectively.

For the compound `Cc1ccc(-c2ccn3nc(N)nc3c2)c(F)c1C(=O)NCC(F)(F)C(C)(O)c1ccc(C(F)(F)F)cc1` (stereo not drawn) [Example 227, 3-(2-amino-[1,2,4]triazolo[1,5-a]pyridin-7-yl)-N-(2,2-difluoro-3-hydroxy-3-(4-(trifluoromethyl)phenyl)butyl)-2-fluoro-6-methylbenzamide], the IC50 turned out to be 0.7 nM in assay [1] (setting [3]) and 15 nM in assay [2] (setting [4]).

`Cc1ccc(-c2ccn3nc(N)nc3c2)c(F)c1C(=O)NCC(F)(F)[C@@H](OC(N)=O)c1ccc(F)cc1` [Example 276, (S)-3-(3-(2-amino-[1,2,4]triazolo[1,5-a]pyridin-7-yl)-2-fluoro-6-methylbenzamido)-2,2-difluoro-1-(4-fluorophenyl)propyl carbamate]: the half-inhibitory concentration (IC50) in assay [1] (setting [3]) amounted to 8.4 nM; in assay [2] (setting [4]) it was 3.7 nM.

For `CC(O)(c1ccc(F)cc1)C(F)(F)CNC(=O)c1c(Cl)ccc(-c2ccn3nc(N)nc3c2)c1F` (single isomer, unassigned) [Example 88, 3-(2-amino-[1,2,4]triazolo[1,5-a]pyridin-7-yl)-6-chloro-N-(2,2-difluoro-3-(4-fluorophenyl)-3-hydroxybutyl)-2-fluorobenzamide], the IC50 in assay [1] (setting [3]) stood at 2.4 nM; in assay [2] (setting [4]) it was 3.6 nM.

On to `Cc1cccc(C(O)C(F)(F)CNC(=O)c2c(Cl)ccc(-c3ccn4nc(N)nc4c3)c2F)c1` (stereo not drawn) [Example 175, 3-(2-amino-[1,2,4]triazolo[1,5-a]pyridin-7-yl)-6-chloro-N-(2,2-difluoro-3-hydroxy-3-(m-tolyl)propyl)-2-fluorobenzamide], for which the figures for the IC50 in assay [1] (setting [5]) and in assay [2] (setting [4]) were 7.8 nM and 2.7 nM, respectively.

As to `Nc1nc2cc(-c3ccc(Cl)c(C(=O)NCC(F)(F)C(O)C4CCC(F)(F)CC4)c3F)ccn2n1` (stereo not drawn) [Example 256, 3-(2-amino-[1,2,4]triazolo[1,5-a]pyridin-7-yl)-6-chloro-N-(3-(4,4-difluorocyclohexyl)-2,2-difluoro-3-hydroxypropyl)-2-fluorobenzamide], the IC50 in assay [2] (setting [4]) came to 3.2 nM.

On to `Cc1ccc(C(O)C(F)(F)CNC(=O)c2c(Cl)ccc(-c3ccn4nc(N)nc4c3)c2F)cc1` (stereo not drawn) [Example 172, 3-(2-amino-[1,2,4]triazolo[1,5-a]pyridin-7-yl)-6-chloro-N-(2,2-difluoro-3-hydroxy-3-(p-tolyl)propyl)-2-fluorobenzamide], for which the IC50 in assay [2] (setting [4]) turned out to be 1.3 nM.

On to `Cc1ccc(-c2ccn3nc(N)nc3c2)c(F)c1C(=O)NCC(F)(F)C(C)(O)c1ccc(F)cc1` (racemic) [Example 18, 3-(2-amino-[1,2,4]triazolo[1,5-a]pyridin-7-yl)-N-(2,2-difluoro-3-(4-fluorophenyl)-3-hydroxybutyl)-2-fluoro-6-methylbenzamide], for which the half-maximal inhibitory concentration (IC50) in assay [2] (setting [4]) was 8.9 nM.

`[2H]C([2H])([2H])c1cccc(C(O)C(F)(F)CNC(=O)c2c(C([2H])([2H])[2H])ccc(-c3ccn4nc(N)nc4c3)c2F)c1F` (single isomer, unassigned) [Example 206, 3-(2-amino-[1,2,4]triazolo[1,5-a]pyridin-7-yl)-N-(2,2-difluoro-3-(2-fluoro-3-(methyl-d3)phenyl)-3-hydroxypropyl)-2-fluoro-6-(methyl-d3)benzamide]: the IC50 in assay [2] (setting [4]) turned out to be 7.7 nM.

As for `COc1c(-c2ccc(C)c(C(=O)NCC[C@H](O)c3ccc(Cl)cc3)c2F)ccn2nc(N)nc12` [compound 133], the IC50 in assay [2] (setting [4]) was 3.8 nM.
